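All cell lines were grown in 96-well plates and treated with compound for 48 hours. GI50 marks 50% less growth. At the TGI there is no net growth.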
Key:
Test in all cases: growth of human tumour cells (NCI), 48 h
786-0 renal = tested on: 786-0 renal
A549 NSCLC = tested on: A549 NSCLC
ACHN renal = tested on: ACHN renal
BT-549 breast = tested on: BT-549 breast
CAKI-1 renal = tested on: CAKI-1 renal
CCRF-CEM leukemia = tested on: CCRF-CEM leukemia
COLO 205 colon = tested on: COLO 205 colon
DU-145 prostate = tested on: DU-145 prostate
EKVX NSCLC = tested on: EKVX NSCLC
HCC-2998 colon = tested on: HCC-2998 colon
HCT-116 colon = tested on: HCT-116 colon
HCT-15 colon = tested on: HCT-15 colon
HL-60(TB) leukemia = tested on: HL-60(TB) leukemia
HOP-62 NSCLC = tested on: HOP-62 NSCLC
HOP-92 NSCLC = tested on: HOP-92 NSCLC
HS 578T breast = tested on: HS 578T breast
HT29 colon = tested on: HT29 colon
IGROV1 ovarian = tested on: IGROV1 ovarian
K-562 leukemia = tested on: K-562 leukemia
KM12 colon = tested on: KM12 colon
LOX IMVI melanoma = tested on: LOX IMVI melanoma
M14 melanoma = tested on: M14 melanoma
MALME-3M melanoma = tested on: MALME-3M melanoma
MCF7 breast = tested on: MCF7 breast
MDA-MB-231 breast = tested on: MDA-MB-231 breast
MDA-MB-435 = tested on: MDA-MB-435
MOLT-4 leukemia = tested on: MOLT-4 leukemia
NCI-H226 lung = tested on: NCI-H226 lung
NCI-H23 lung = tested on: NCI-H23 lung
NCI-H460 lung = tested on: NCI-H460 lung
NCI-H522 lung = tested on: NCI-H522 lung
NCI/ADR-RES ovarian = tested on: NCI/ADR-RES ovarian
OVCAR-3 ovarian = tested on: OVCAR-3 ovarian
OVCAR-4 ovarian = tested on: OVCAR-4 ovarian
OVCAR-5 ovarian = tested on: OVCAR-5 ovarian
OVCAR-8 ovarian = tested on: OVCAR-8 ovarian
PC-3 prostate = tested on: PC-3 prostate
RXF 393 renal = tested on: RXF 393 renal
SF-268 CNS = tested on: SF-268 CNS
SF-295 CNS = tested on: SF-295 CNS
SF-539 CNS = tested on: SF-539 CNS
SK-MEL-2 melanoma = tested on: SK-MEL-2 melanoma
SK-MEL-28 melanoma = tested on: SK-MEL-28 melanoma
SK-MEL-5 melanoma = tested on: SK-MEL-5 melanoma
SK-OV-3 ovarian = tested on: SK-OV-3 ovarian
SN12C renal = tested on: SN12C renal
SNB-19 CNS = tested on: SNB-19 CNS
SNB-75 CNS = tested on: SNB-75 CNS
SR leukemia = tested on: SR leukemia
SW-620 colon = tested on: SW-620 colon
T-47D breast = tested on: T-47D breast
TK-10 renal = tested on: TK-10 renal
U251 CNS = tested on: U251 CNS
UACC-257 melanoma = tested on: UACC-257 melanoma
UACC-62 melanoma = tested on: UACC-62 melanoma
UO-31 renal = tested on: UO-31 renal

COc1cc2c(cc1OCCCCCn1c(-c3ccc(OCc4ccccc4)cc3)nc3cc(N4CCOCC4)ccc31)N=C[C@@H]1CCCN1C2=O
GI50 (786-0 renal): 3.24 µM | TGI (786-0 renal): > 69.3 µM | GI50 (A549 NSCLC): 2.43 µM | TGI (A549 NSCLC): 7.95 µM | GI50 (ACHN renal): 2.63 µM | TGI (ACHN renal): 8.31 µM | GI50 (BT-549 breast): 1.52 µM | TGI (BT-549 breast): 5.68 µM | GI50 (CAKI-1 renal): 1.43 µM | TGI (CAKI-1 renal): 9 µM | GI50 (CCRF-CEM leukemia): 1.4 µM | GI50 (COLO 205 colon): 2.15 µM | TGI (COLO 205 colon): 5.13 µM | GI50 (DU-145 prostate): 2.57 µM | TGI (DU-145 prostate): 11.3 µM | GI50 (EKVX NSCLC): 4.74 µM | TGI (EKVX NSCLC): 20.7 µM | GI50 (HCC-2998 colon): 2.09 µM | TGI (HCC-2998 colon): 4.14 µM | GI50 (HCT-116 colon): 2.39 µM | TGI (HCT-116 colon): > 100 µM | GI50 (HCT-15 colon): 2.81 µM | TGI (HCT-15 colon): > 31.3 µM | GI50 (HL-60(TB) leukemia): 2.31 µM | TGI (HL-60(TB) leukemia): > 19.9 µM | GI50 (HOP-62 NSCLC): 3.58 µM | TGI (HOP-62 NSCLC): 40 µM | GI50 (HOP-92 NSCLC): 2.11 µM | TGI (HOP-92 NSCLC): 26.2 µM | GI50 (HS 578T breast): 2.84 µM | TGI (HS 578T breast): 12.8 µM | GI50 (HT29 colon): 3.26 µM | TGI (HT29 colon): > 100 µM | GI50 (IGROV1 ovarian): 1.17 µM | TGI (IGROV1 ovarian): 5.88 µM | TGI (K-562 leukemia): > 100 µM | GI50 (KM12 colon): 1.93 µM | TGI (KM12 colon): 4.73 µM | GI50 (LOX IMVI melanoma): 2.02 µM | TGI (LOX IMVI melanoma): 7.85 µM | GI50 (M14 melanoma): 2 µM | TGI (M14 melanoma): 4.56 µM | GI50 (MALME-3M melanoma): 2.08 µM | TGI (MALME-3M melanoma): 4.49 µM | GI50 (MCF7 breast): 1.18 µM | TGI (MCF7 breast): 8.77 µM | GI50 (MDA-MB-231 breast): 2.8 µM | TGI (MDA-MB-231 breast): > 47.2 µM | GI50 (MDA-MB-435): 1.87 µM | TGI (MDA-MB-435): 4.38 µM | GI50 (MOLT-4 leukemia): 2.93 µM | TGI (MOLT-4 leukemia): > 26.6 µM | GI50 (NCI-H226 lung): 1.88 µM | TGI (NCI-H226 lung): 4.56 µM | GI50 (NCI-H23 lung): 2.62 µM | TGI (NCI-H23 lung): 6.53 µM | GI50 (NCI-H460 lung): 2.17 µM | TGI (NCI-H460 lung): 5.93 µM | GI50 (NCI-H522 lung): 2.15 µM | TGI (NCI-H522 lung): 8.35 µM | GI50 (NCI/ADR-RES ovarian): 3.3 µM | TGI (NCI/ADR-RES ovarian): 26.1 µM | GI50 (OVCAR-3 ovarian): 2.06 µM | TGI (OVCAR-3 ovarian): 5.36 µM | GI50 (OVCAR-4 ovarian): 3.4 µM | TGI (OVCAR-4 ovarian): 59.4 µM | GI50 (OVCAR-5 ovarian): 3.49 µM | TGI (OVCAR-5 ovarian): > 28.9 µM | GI50 (OVCAR-8 ovarian): 2.78 µM | TGI (OVCAR-8 ovarian): > 50.9 µM | GI50 (PC-3 prostate): 3.88 µM | TGI (PC-3 prostate): > 100 µM | TGI (RXF 393 renal): 2.38 µM | GI50 (SF-268 CNS): 2.91 µM | TGI (SF-268 CNS): 10.4 µM | GI50 (SF-295 CNS): 4.84 µM | TGI (SF-295 CNS): > 100 µM | GI50 (SF-539 CNS): 2.42 µM | TGI (SF-539 CNS): 5.41 µM | GI50 (SK-MEL-2 melanoma): 0.729 µM | TGI (SK-MEL-2 melanoma): 3.02 µM | GI50 (SK-MEL-28 melanoma): 2.18 µM | TGI (SK-MEL-28 melanoma): 4.61 µM | GI50 (SK-MEL-5 melanoma): 1.66 µM | TGI (SK-MEL-5 melanoma): 3.13 µM | GI50 (SK-OV-3 ovarian): 4.16 µM | TGI (SK-OV-3 ovarian): > 100 µM | GI50 (SN12C renal): 3.11 µM | TGI (SN12C renal): 47 µM | GI50 (SNB-19 CNS): 3.71 µM | TGI (SNB-19 CNS): > 49.8 µM | GI50 (SNB-75 CNS): 1.99 µM | TGI (SNB-75 CNS): 6.63 µM | GI50 (SR leukemia): 1.05 µM | GI50 (SW-620 colon): 2.12 µM | TGI (SW-620 colon): 8.29 µM | GI50 (T-47D breast): 2.17 µM | TGI (T-47D breast): 7.73 µM | GI50 (TK-10 renal): 3.45 µM | TGI (TK-10 renal): > 36.2 µM | GI50 (U251 CNS): 2.23 µM | TGI (U251 CNS): > 100 µM | GI50 (UACC-257 melanoma): 3.04 µM | TGI (UACC-257 melanoma): 7.78 µM | GI50 (UACC-62 melanoma): 1.72 µM | TGI (UACC-62 melanoma): 3.67 µM | GI50 (UO-31 renal): 0.377 µM

From PubChem BioAssay (NCI)
